Patent US12371464B2, “Polypeptides and uses thereof” (MEDIMMUNE LIMITED, priority 2020, dated 2025)
Numbered stars: 1 amine (or outer) side, 2 acyl side, 3 side chain; on linkers, the order of the positions; unused ones are H or OH. Bridge positions count the residues as written; N and C are the ends. Square brackets hold non-standard residues; d marks the D form. Side chains are listed from the residue outwards. Ends that are not written are not given here. Peptide text beside a SMILES is read from it. * marks the point of attachment. C20 diacid = O=C(O)CCCCCCCCCCCCCCCCCCC(=O)*; C18 diacid = O=C(O)CCCCCCCCCCCCCCCCC(=O)*; γGlu = O=C(O)[C@H](CCC(=O)[*:2])N[*:1]; αMeF = C[C@](N)(Cc1ccccc1)C(=O)O; Dab = NCC[C@H](N)C(=O)O; Aib = CC(C)(N)C(=O)O

Assays:
[1] = biological target: T1, human amylin receptor (calcitonin receptor co-expressed with receptor activity modifying protein, RAMP3) (hAMYR3) (Homo sapiens, UniProt O60896+P30988); test: cAMP production in 1321N1 cells with stable recombinant expression of human amylin receptor (hAMYR3); assay type: cell-based; conditions: for EC50: cAMP production, 1321N1 cells expressing human amylin3 receptor; for Ratio (selectivity hAMYR vs hCTR, ratio of EC50 values at the two receptors): EC50 hCTR / EC50 hAMYR3
T1 construct: expressed in transfected cells
T1 sequence (P30988 25-474): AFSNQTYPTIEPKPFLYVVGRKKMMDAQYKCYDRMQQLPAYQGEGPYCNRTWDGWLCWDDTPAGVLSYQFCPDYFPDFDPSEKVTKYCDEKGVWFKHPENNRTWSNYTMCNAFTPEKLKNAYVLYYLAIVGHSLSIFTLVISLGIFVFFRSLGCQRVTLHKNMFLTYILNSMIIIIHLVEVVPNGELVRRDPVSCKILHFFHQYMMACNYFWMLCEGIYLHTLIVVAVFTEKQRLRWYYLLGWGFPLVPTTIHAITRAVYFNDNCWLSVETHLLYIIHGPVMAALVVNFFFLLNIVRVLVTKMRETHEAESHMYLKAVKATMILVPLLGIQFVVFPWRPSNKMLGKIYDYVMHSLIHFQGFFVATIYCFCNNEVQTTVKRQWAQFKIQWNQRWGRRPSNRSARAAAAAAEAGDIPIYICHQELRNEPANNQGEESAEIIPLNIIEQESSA
T1 sequence (O60896 24-148 partner): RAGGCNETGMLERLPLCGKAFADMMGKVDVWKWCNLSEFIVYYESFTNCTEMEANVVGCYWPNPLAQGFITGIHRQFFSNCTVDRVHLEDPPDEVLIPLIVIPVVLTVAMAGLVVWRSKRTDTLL
Description: (§1) The functional activities of lipidated pramlintide analogue peptides, such as cAMP production, were tested in 1321N1 cell line with stable recombinant expression of human calcitonin receptor (hCTR) or human amylin receptor (calcitonin receptor co-expressed with receptor activity modifying protein, RAMP3) (hAMYR3) or HEK cells with stable recombinant expression of rat calcitonin receptor (rat CTR) or rat amylin receptor (calcitonin receptor co-expressed with receptor activity modifying protein, RAMP3) (Rat AMYR3).
(§2) Cryopreserved cell stock was thawed rapidly in a water-bath, suspended in assay buffer (0.1% BSA (Sigma #A3059) in HBSS (Sigma #H8264) with 25 mM HEPES, pH 7.4 and containing 0.5 mM IB MX (Sigma #17018)) and spun at 240×g for 5 minutes. Cells were re-suspended in assay buffer at a batch-dependent optimized concentration (e.g. hCTR cells at 0.125×10^5 cells/mL, hAMYR3 cells at 0.125×10^5 cells/mL, rat CTR cells at 1×10^5 cells/mL, rat AMYR3 at 2×10^5 cells/mL).
(§3) The test peptide stock was prepared in DMSO and diluted in assay buffer to reach stated concentrations and transferred in duplicates into a 384-black shallow well microtitre assay plate (Corning #3676). Cells were added to the assay plate, incubated at room temperature for 30 minutes and the CAMP level measured using CAMP dynamic 2 HTRF kit (Cisbio, Cat #62AM4PEJ), following the two step protocol as per manufacturer's recommendations. The plates were read on an Envision (Perkin Elmer) using excitation wavelength of 320 nm and emission wavelengths of 620 nm & 665 nm.
(§4) Data was transformed to % Delta F as described in the manufacturer's guidelines and analyzed as percent activation of maximal amylin or calcitonin effect by 4-parameter logistic fit to determine EC50 values. The selectivity of a peptide to hAMYR vs hCTR is defined as a ratio of EC50 values at the two receptors.

[2] = cited from earlier work
[3] = biological target: T2, human calcitonin receptor (hCTR) (Homo sapiens, UniProt P30988); test: cAMP production in 1321N1 cells with stable recombinant expression of human calcitonin receptor (hCTR); assay type: cell-based; conditions: 1321N1 cells expressing human calcitonin receptor
T2 construct: expressed in transfected cells
T2 sequence (P30988 25-474): T1 sequence (P30988 25-474)
Description: as §1, §2, §3, §4

EC50 [1]	EC50 [3]	Molecule	terminal half-life of amylin in rats [2]	Ratio (selectivity hAMYR vs hCTR, ratio of EC50 values at the two receptors) [1]
1.2 nM	–	CC[C@H](C)[C@H](NC(=O)[C@H](C)NC(=O)[C@@H]1CCCN1C(=O)[C@H](Cc1ccccc1)NC(=O)[C@H](CC(N)=O)NC(=O)C(C)(C)NC(=O)[C@H](CO)NC(=O)[C@H](CO)NC(=O)[C@H](Cc1c[nH]cn1)NC(=O)[C@@H](NC(=O)[C@H](CC(C)C)NC(=O)[C@H](Cc1ccccc1)NC(=O)[C@H](CC(N)=O)NC(=O)[C@H](C)NC(=O)[C@H](CC(C)C)NC(=O)[C@H](CCCNC(=N)N)NC(=O)[C@H](CCC(N)=O)NC(=O)[C@@H](NC(=O)[C@H](C)NC(=O)[C@@H]1CSSC[C@H](NC(=O)[C@@H](N)CCCCNC(=O)CC[C@H](NC(=O)CC[C@H](NC(=O)CCCCCCCCCCCCCCCCCCC(=O)O)C(=O)O)C(=O)O)C(=O)N[C@@H](CC(N)=O)C(=O)N[C@@H]([C@@H](C)O)C(=O)N[C@@H](C)C(=O)N[C@@H]([C@@H](C)O)C(=O)N1)[C@@H](C)O)C(C)C)C(=O)N[C@@H](CC(C)C)C(=O)N[C@@H](CO)C(=O)N1CCC[C@H]1C(=O)N[C@H](C(=O)N[C@@H](CC(N)=O)C(=O)N[C@H](C(=O)NCC(=O)N[C@@H](CO)C(=O)N[C@@H](CCN)C(=O)N[C@H](C(=O)N[C@@H](Cc1ccc(O)cc1)C(N)=O)[C@@H](C)O)C(C)C)[C@@H](C)O [Peptide 125, K(γE-γE-C20diacid)[CNTATC]ATQRLANFLVHSS(Aib)NFPAILSPTNVGS(Dab)TY-amide] (H-K([γGlu-γGlu-C20 diacid])CNTATCATQRLANFLVHSS[Aib]NFPAILSPTNVGS[Dab]TY-NH2; disulfide 2-7 (inferred))	–	–
–	–	amylin (KCNTATCATQRLANFLVHSSNNFGAILSSTNVGSNTY; not fully specified (C-terminus, bridges); cysteine pairing not given here; UniProt P10997 34-70, looked up) [native peptide hormone of which pramlintide is a synthetic analogue]	around 13 minutes	–
0.211 nM	1.39 nM	CC[C@H](C)[C@H](NC(=O)[C@@H]1CCCN1C(=O)CNC(=O)[C@H](Cc1ccccc1)NC(=O)[C@H](CC(N)=O)NC(=O)C(C)(C)NC(=O)[C@H](CO)NC(=O)[C@H](CO)NC(=O)[C@H](Cc1c[nH]cn1)NC(=O)[C@@H](NC(=O)[C@H](CC(C)C)NC(=O)[C@H](Cc1ccccc1)NC(=O)[C@H](CC(N)=O)NC(=O)[C@H](C)NC(=O)[C@H](CC(C)C)NC(=O)[C@H](CCCNC(=N)N)NC(=O)[C@H](CCC(N)=O)NC(=O)[C@@H](NC(=O)[C@H](C)NC(=O)[C@@H]1CSSC[C@H](NC(=O)[C@H](CCCCN)NC(=O)CC[C@H](NC(=O)CCCCCCCCCCCCCCCCC(=O)O)C(=O)O)C(=O)N[C@@H](CC(N)=O)C(=O)N[C@@H]([C@@H](C)O)C(=O)N[C@@H](C)C(=O)N[C@@H]([C@@H](C)O)C(=O)N1)[C@@H](C)O)C(C)C)C(=O)N[C@@H](CC(C)C)C(=O)N1CCC[C@H]1C(=O)N1CCC[C@H]1C(=O)N[C@H](C(=O)N[C@@H](CCCNC(=N)N)C(=O)N[C@H](C(=O)NCC(=O)N[C@@H](CO)C(=O)N[C@@H](CC(N)=O)C(=O)N[C@H](C(=O)N[C@@H](Cc1ccc(O)cc1)C(N)=O)[C@@H](C)O)C(C)C)[C@@H](C)O [Peptide 71, C18diacid-γE-K[CNTATC]ATQRLANFLVHSS(Aib)NFGPILPPTRVGSNTY-amide] ({C18 diacid-γGlu}-KCNTATCATQRLANFLVHSS[Aib]NFGPILPPTRVGSNTY-NH2; disulfide 2-7)	–	7
1.77 nM	10.7 nM	CC[C@H](C)[C@H](NC(=O)[C@H](C)NC(=O)[C@@H]1CCCN1C(=O)[C@H](Cc1ccccc1)NC(=O)[C@H](CC(N)=O)NC(=O)[C@@H]1CCCN1C(=O)[C@H](CO)NC(=O)[C@H](CO)NC(=O)[C@H](Cc1c[nH]cn1)NC(=O)[C@@H](NC(=O)[C@H](CC(C)C)NC(=O)[C@H](Cc1c[nH]c2ccccc12)NC(=O)[C@H](CC(N)=O)NC(=O)[C@H](C)NC(=O)[C@H](CC(C)C)NC(=O)[C@H](CCCNC(=N)N)NC(=O)[C@H](CCC(N)=O)NC(=O)[C@@H](NC(=O)[C@H](C)NC(=O)[C@@H]1CSSC[C@H](NC(=O)[C@@H](N)CCCCNC(=O)CC[C@H](NC(=O)CC[C@H](NC(=O)CCCCCCCCCCCCCCCCCCC(=O)O)C(=O)O)C(=O)O)C(=O)N[C@@H](CC(N)=O)C(=O)N[C@@H](C)C(=O)N[C@@H](C)C(=O)N[C@@H]([C@@H](C)O)C(=O)N1)[C@@H](C)O)C(C)C)C(=O)N[C@@H](CC(C)C)C(=O)N[C@@H](CO)C(=O)N1CCC[C@H]1C(=O)N[C@H](C(=O)N[C@@H](CC(N)=O)C(=O)N[C@H](C(=O)NCC(=O)N[C@@H](CO)C(=O)N[C@@H](CC(N)=O)C(=O)N[C@H](C(=O)N[C@@H](Cc1ccc(O)cc1)C(N)=O)[C@@H](C)O)C(C)C)[C@@H](C)O [Peptide 120] (H-K([γGlu-γGlu-C20 diacid])CNAATCATQRLANWLVHSSPNFPAILSPTNVGSNTY-NH2; disulfide 2-7; N-terminus assumed)	–	–
–	–	CC[C@H](C)[C@H](NC(=O)[C@@H]1CCCN1C(=O)CNC(=O)[C@H](Cc1ccccc1)NC(=O)[C@H](CC(N)=O)NC(=O)C(C)(C)NC(=O)[C@H](CO)NC(=O)[C@H](CO)NC(=O)[C@H](Cc1c[nH]cn1)NC(=O)[C@@H](NC(=O)[C@H](CC(C)C)NC(=O)[C@H](Cc1ccccc1)NC(=O)[C@H](CC(N)=O)NC(=O)[C@H](C)NC(=O)[C@H](CC(C)C)NC(=O)[C@H](CCCNC(=N)N)NC(=O)[C@H](CCC(N)=O)NC(=O)[C@@H](NC(=O)[C@H](C)NC(=O)[C@@H]1CSSC[C@H](NC(=O)[C@@H](N)CCCCNC(=O)CC[C@H](NC(=O)CC[C@H](NC(=O)CCCCCCCCCCCCCCCCC(=O)O)C(=O)O)C(=O)O)C(=O)N[C@@H](CC(N)=O)C(=O)N[C@@H]([C@@H](C)O)C(=O)N[C@@H](C)C(=O)N[C@@H]([C@@H](C)O)C(=O)N1)[C@@H](C)O)C(C)C)C(=O)N[C@@H](CC(C)C)C(=O)N1CCC[C@H]1C(=O)N1CCC[C@H]1C(=O)N[C@H](C(=O)NC(C)(C)C(=O)N[C@H](C(=O)NCC(=O)N[C@@H](CO)C(=O)N[C@@H](CC(N)=O)C(=O)N[C@H](C(=O)N[C@@H](Cc1ccc(O)cc1)C(N)=O)[C@@H](C)O)C(C)C)[C@@H](C)O [Peptide 89, K(γE-γE-C18diacid)[CNTATC]ATQRLANFLVHSS(Aib)NFGPILPPT(Aib)VGSNTY-amide] (H-K([γGlu-γGlu-C18 diacid])CNTATCATQRLANFLVHSS[Aib]NFGPILPPT[Aib]VGSNTY-NH2; disulfide 2-7; N-terminus assumed)	–	18
–	2.02 nM	CC[C@H](C)[C@H](NC(=O)[C@@H]1CCCN1C(=O)CNC(=O)[C@](C)(Cc1ccccc1)NC(=O)[C@H](CC(N)=O)NC(=O)[C@H](CC(N)=O)NC(=O)[C@H](CO)NC(=O)[C@H](CO)NC(=O)[C@H](Cc1c[nH]cn1)NC(=O)[C@H](CCCNC(=N)N)NC(=O)[C@H](CC(C)C)NC(=O)[C@H](Cc1ccccc1)NC(=O)[C@H](CC(N)=O)NC(=O)[C@H](C)NC(=O)[C@H](CC(C)C)NC(=O)[C@H](CCCNC(=N)N)NC(=O)[C@H](CCC(N)=O)NC(=O)[C@@H](NC(=O)[C@H](C)NC(=O)[C@@H]1CSSC[C@H](NC(=O)[C@@H](N)CCCCNC(=O)CC[C@H](NC(=O)CCCCCCCCCCCCCCCCC(=O)O)C(=O)O)C(=O)N[C@@H](CC(N)=O)C(=O)N[C@@H]([C@@H](C)O)C(=O)N[C@@H](C)C(=O)N[C@@H]([C@@H](C)O)C(=O)N1)[C@@H](C)O)C(=O)N[C@@H](CC(C)C)C(=O)N1CCC[C@H]1C(=O)N1CCC[C@H]1C(=O)N[C@H](C(=O)N[C@@H](CCC(=O)O)C(=O)N[C@H](C(=O)NCC(=O)N[C@@H](CO)C(=O)N[C@@H](CC(N)=O)C(=O)N[C@H](C(=O)N[C@@H](Cc1ccc(O)cc1)C(N)=O)[C@@H](C)O)C(C)C)[C@@H](C)O [Peptide 16, K(γE-C18diacid)[CNTATC]ATQRLANFLRHSSNN(αMePhe)GPILPPTEVGSNTY-amide] (H-K([γGlu-C18 diacid])CNTATCATQRLANFLRHSSNN[αMeF]GPILPPTEVGSNTY-NH2; disulfide 2-7; N-terminus assumed)	–	–
